Assay results as given in PubChem BioAssay (NCI).
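Briefly, cells in 96-well plates were exposed to five compound concentrations for 48 h, and endpoints were estimated by linear interpolation. TGI marks complete inhibition of growth.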

Assays:
Experiment in all cases: DTP human tumour cell line panel, 48 h
RPMI-8226 leukemia = tested on: RPMI-8226 leukemia
SNB-78 CNS = tested on: SNB-78 CNS
NCI-H522 lung = tested on: NCI-H522 lung
UACC-257 melanoma = tested on: UACC-257 melanoma
786-0 renal = tested on: 786-0 renal
M19-MEL melanoma = tested on: M19-MEL melanoma
SNB-75 CNS = tested on: SNB-75 CNS
SK-MEL-28 melanoma = tested on: SK-MEL-28 melanoma
SF-268 CNS = tested on: SF-268 CNS
OVCAR-4 ovarian = tested on: OVCAR-4 ovarian
DMS 114 small cell lung = tested on: DMS 114 small cell lung
SNB-19 CNS = tested on: SNB-19 CNS
OVCAR-5 ovarian = tested on: OVCAR-5 ovarian
ACHN renal = tested on: ACHN renal
IGROV1 ovarian = tested on: IGROV1 ovarian
SK-MEL-5 melanoma = tested on: SK-MEL-5 melanoma
LOX IMVI melanoma = tested on: LOX IMVI melanoma
CAKI-1 renal = tested on: CAKI-1 renal
SK-OV-3 ovarian = tested on: SK-OV-3 ovarian
UO-31 renal = tested on: UO-31 renal
HCT-116 colon = tested on: HCT-116 colon
MOLT-4 leukemia = tested on: MOLT-4 leukemia
CCRF-CEM leukemia = tested on: CCRF-CEM leukemia
EKVX NSCLC = tested on: EKVX NSCLC
DMS 273 small cell lung = tested on: DMS 273 small cell lung
NCI-H226 lung = tested on: NCI-H226 lung
HCC-2998 colon = tested on: HCC-2998 colon
NCI-H460 lung = tested on: NCI-H460 lung
SF-295 CNS = tested on: SF-295 CNS
SK-MEL-2 melanoma = tested on: SK-MEL-2 melanoma
TK-10 renal = tested on: TK-10 renal
NCI-H23 lung = tested on: NCI-H23 lung
U251 CNS = tested on: U251 CNS
A549 NSCLC = tested on: A549 NSCLC
RXF-631 renal = tested on: RXF-631 renal
RXF 393 renal = tested on: RXF 393 renal
HOP-62 NSCLC = tested on: HOP-62 NSCLC
SN12C renal = tested on: SN12C renal
OVCAR-3 ovarian = tested on: OVCAR-3 ovarian
HOP-92 NSCLC = tested on: HOP-92 NSCLC
M14 melanoma = tested on: M14 melanoma
XF 498 CNS = tested on: XF 498 CNS
HOP-18 NSCLC = tested on: HOP-18 NSCLC
OVCAR-8 ovarian = tested on: OVCAR-8 ovarian
COLO 205 colon = tested on: COLO 205 colon
SR leukemia = tested on: SR leukemia
LXFL 529 NSCLC = tested on: LXFL 529 NSCLC
HT29 colon = tested on: HT29 colon
KM12 colon = tested on: KM12 colon
SW-620 colon = tested on: SW-620 colon
HL-60(TB) leukemia = tested on: HL-60(TB) leukemia
K-562 leukemia = tested on: K-562 leukemia
DLD-1 colon = tested on: DLD-1 colon
SF-539 CNS = tested on: SF-539 CNS
KM20L2 colon = tested on: KM20L2 colon
UACC-62 melanoma = tested on: UACC-62 melanoma
A498 renal = tested on: A498 renal
MALME-3M melanoma = tested on: MALME-3M melanoma
HCT-15 colon = tested on: HCT-15 colon

## C=CC12CCCCC1CC(C(=O)OC)=C(O)C2 (stereo not drawn)
RPMI-8226 leukemia
  TGI: > 100 µM
SNB-78 CNS
  TGI: > 100 µM
NCI-H522 lung
  TGI: > 100 µM
UACC-257 melanoma
  TGI: > 100 µM
786-0 renal
  TGI: > 100 µM
M19-MEL melanoma
  TGI: > 100 µM
SNB-75 CNS
  TGI: > 100 µM
SK-MEL-28 melanoma
  TGI: > 100 µM
SF-268 CNS
  TGI: > 100 µM
OVCAR-4 ovarian
  TGI: > 100 µM
DMS 114 small cell lung
  TGI: > 100 µM
SNB-19 CNS
  TGI: > 100 µM
OVCAR-5 ovarian
  TGI: > 100 µM
ACHN renal
  TGI: > 100 µM
IGROV1 ovarian
  TGI: > 100 µM
SK-MEL-5 melanoma
  TGI: > 100 µM
LOX IMVI melanoma
  TGI: > 100 µM
CAKI-1 renal
  TGI: > 100 µM
SK-OV-3 ovarian
  TGI: > 100 µM
UO-31 renal
  TGI: > 100 µM
HCT-116 colon
  TGI: > 100 µM
MOLT-4 leukemia
  TGI: > 100 µM
CCRF-CEM leukemia
  TGI: > 100 µM
EKVX NSCLC
  TGI: > 100 µM
DMS 273 small cell lung
  TGI: > 100 µM
NCI-H226 lung
  TGI: > 100 µM
HCC-2998 colon
  TGI: > 100 µM
NCI-H460 lung
  TGI: > 100 µM
SF-295 CNS
  TGI: > 100 µM
SK-MEL-2 melanoma
  TGI: > 100 µM
TK-10 renal
  TGI: > 100 µM
NCI-H23 lung
  TGI: > 100 µM
U251 CNS
  TGI: > 100 µM
A549 NSCLC
  TGI: > 100 µM
RXF-631 renal
  TGI: > 100 µM
RXF 393 renal
  TGI: > 100 µM
HOP-62 NSCLC
  TGI: > 100 µM
SN12C renal
  TGI: > 100 µM
OVCAR-3 ovarian
  TGI: > 100 µM
HOP-92 NSCLC
  TGI: > 100 µM
M14 melanoma
  TGI: > 100 µM
XF 498 CNS
  TGI: > 100 µM
HOP-18 NSCLC
  TGI: > 100 µM
OVCAR-8 ovarian
  TGI: > 100 µM
COLO 205 colon
  TGI: > 100 µM
SR leukemia
  TGI: > 100 µM
LXFL 529 NSCLC
  TGI: > 100 µM
HT29 colon
  TGI: > 100 µM
KM12 colon
  TGI: > 100 µM
SW-620 colon
  TGI: > 100 µM
HL-60(TB) leukemia
  TGI: > 100 µM
K-562 leukemia
  TGI: > 100 µM
DLD-1 colon
  TGI: > 100 µM
SF-539 CNS
  TGI: > 100 µM
KM20L2 colon
  TGI: > 100 µM
UACC-62 melanoma
  TGI: > 100 µM

## COC(=O)/C=C1\CCC2[C@@H](C(=O)CC3[C@]2(C)CCC[C@@]3(C)C(=O)OC)C1C (stereo partly drawn)
RPMI-8226 leukemia
  TGI: 19.9 µM
SNB-78 CNS
  TGI: > 100 µM
NCI-H522 lung
  TGI: 36 µM
UACC-257 melanoma
  TGI: 33.9 µM
786-0 renal
  TGI: > 100 µM
M19-MEL melanoma
  TGI: 39.7 µM
SNB-75 CNS
  TGI: 47.9 µM
SK-MEL-28 melanoma
  TGI: 31.8 µM
SF-268 CNS
  TGI: 52.1 µM
OVCAR-4 ovarian
  TGI: 78.8 µM
DMS 114 small cell lung
  TGI: 37.2 µM
SNB-19 CNS
  TGI: > 100 µM
OVCAR-5 ovarian
  TGI: > 100 µM
A498 renal
  TGI: 99.7 µM
ACHN renal
  TGI: 63.9 µM
IGROV1 ovarian
  TGI: 57 µM
SK-MEL-5 melanoma
  TGI: 28 µM
MALME-3M melanoma
  TGI: 54.1 µM
CAKI-1 renal
  TGI: > 100 µM
SK-OV-3 ovarian
  TGI: 72.4 µM
UO-31 renal
  TGI: 44.4 µM
HCT-116 colon
  TGI: 48.3 µM
MOLT-4 leukemia
  TGI: 25.9 µM
CCRF-CEM leukemia
  TGI: 38.1 µM
EKVX NSCLC
  TGI: 72.8 µM
DMS 273 small cell lung
  TGI: 52.4 µM
NCI-H226 lung
  TGI: 56.6 µM
HCC-2998 colon
  TGI: 97.9 µM
NCI-H460 lung
  TGI: 32.9 µM
SF-295 CNS
  TGI: 71.8 µM
SK-MEL-2 melanoma
  TGI: 39.4 µM
TK-10 renal
  TGI: 53.4 µM
U251 CNS
  TGI: > 100 µM
A549 NSCLC
  TGI: 52 µM
RXF-631 renal
  TGI: 63.1 µM
HOP-62 NSCLC
  TGI: 69.7 µM
SN12C renal
  TGI: 70.8 µM
OVCAR-3 ovarian
  TGI: 89 µM
HOP-92 NSCLC
  TGI: 50.6 µM
M14 melanoma
  TGI: 34.2 µM
HCT-15 colon
  TGI: > 100 µM
XF 498 CNS
  TGI: 28 µM
HOP-18 NSCLC
  TGI: 79.4 µM
OVCAR-8 ovarian
  TGI: 50.5 µM
COLO 205 colon
  TGI: 33 µM
LXFL 529 NSCLC
  TGI: 23.7 µM
HT29 colon
  TGI: 61 µM
KM12 colon
  TGI: 42.6 µM
SW-620 colon
  TGI: 64.1 µM
HL-60(TB) leukemia
  TGI: 35.1 µM
K-562 leukemia
  TGI: 41.3 µM
DLD-1 colon
  TGI: > 100 µM
SF-539 CNS
  TGI: 61.1 µM
KM20L2 colon
  TGI: 80.3 µM
UACC-62 melanoma
  TGI: 30 µM

## Cc1nc2ccccc2c(=O)n1/N=C(\N=Nc1ccccc1)c1ccccc1Cl
RPMI-8226 leukemia
  TGI: > 100 µM
SNB-78 CNS
  TGI: > 100 µM
NCI-H522 lung
  TGI: > 74.4 µM
UACC-257 melanoma
  TGI: > 100 µM
786-0 renal
  TGI: 99.9 µM
M19-MEL melanoma
  TGI: > 100 µM
SNB-75 CNS
  TGI: 82.2 µM
SK-MEL-28 melanoma
  TGI: > 100 µM
SF-268 CNS
  TGI: > 100 µM
OVCAR-4 ovarian
  TGI: > 100 µM
DMS 114 small cell lung
  TGI: > 90.1 µM
SNB-19 CNS
  TGI: > 100 µM
OVCAR-5 ovarian
  TGI: > 100 µM
A498 renal
  TGI: > 100 µM
ACHN renal
  TGI: > 100 µM
IGROV1 ovarian
  TGI: > 100 µM
SK-MEL-5 melanoma
  TGI: > 100 µM
MALME-3M melanoma
  TGI: > 100 µM
LOX IMVI melanoma
  TGI: > 100 µM
CAKI-1 renal
  TGI: 81.4 µM
SK-OV-3 ovarian
  TGI: 45.8 µM
UO-31 renal
  TGI: > 100 µM
MOLT-4 leukemia
  TGI: > 100 µM
CCRF-CEM leukemia
  TGI: > 100 µM
EKVX NSCLC
  TGI: > 100 µM
DMS 273 small cell lung
  TGI: > 100 µM
NCI-H226 lung
  TGI: > 100 µM
HCC-2998 colon
  TGI: > 100 µM
NCI-H460 lung
  TGI: > 100 µM
SF-295 CNS
  TGI: > 100 µM
SK-MEL-2 melanoma
  TGI: 66.3 µM
TK-10 renal
  TGI: > 86.4 µM
NCI-H23 lung
  TGI: > 100 µM
U251 CNS
  TGI: > 100 µM
A549 NSCLC
  TGI: > 100 µM
RXF-631 renal
  TGI: > 100 µM
RXF 393 renal
  TGI: 61.8 µM
HOP-62 NSCLC
  TGI: > 100 µM
SN12C renal
  TGI: > 68.1 µM
OVCAR-3 ovarian
  TGI: > 100 µM
HOP-92 NSCLC
  TGI: 64.2 µM
M14 melanoma
  TGI: > 100 µM
HCT-15 colon
  TGI: > 100 µM
XF 498 CNS
  TGI: 44.9 µM
HOP-18 NSCLC
  TGI: 30.1 µM
OVCAR-8 ovarian
  TGI: > 100 µM
COLO 205 colon
  TGI: > 100 µM
LXFL 529 NSCLC
  TGI: > 100 µM
HT29 colon
  TGI: > 100 µM
KM12 colon
  TGI: > 100 µM
SW-620 colon
  TGI: > 100 µM
HL-60(TB) leukemia
  TGI: > 100 µM
K-562 leukemia
  TGI: > 100 µM
DLD-1 colon
  TGI: > 100 µM
SF-539 CNS
  TGI: 65.2 µM
KM20L2 colon
  TGI: > 100 µM
UACC-62 melanoma
  TGI: > 100 µM
